Key:
[1] = target: T1, Recombinant full-length human IDO1 (Homo sapiens, UniProt P14902); test: IDO1 enzymatic assay (NFK quantified by LCMS); assay type: biochemical; settings: 2 nM enzyme, 5 μM L-tryptophan, pH6.5, 30 minutes pre-incubation at RT; mean values when measured multiple times; read-out: hIDO activity (IC50 in nM)
T1 construct: Recombinant full-length human IDO1 with a N-terminal hexahistidine tag; hexahistidine (His6) (N); made in house; host or cells: E. coli
Outline: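 IC50 comes from four-parameter logistic fits of duplicate data, with NFK quantified by LCMS and normalized to L-Trp-(indole-d5). Compound (0.5 nM–10 μM) was preincubated 30 min at RT with 2 nM E. coli-expressed IDO1 before a 30 min reaction with 5 μM tryptophan in pH 6.5 buffer containing ascorbate and methylene blue.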

[2] = target: T2, Recombinant human TDO comprising amino acids 19-407 (Homo sapiens, UniProt P48775); test: TDO2 enzymatic assay (NFK quantified by LCMS); assay type: biochemical; settings: 15 nM enzyme, 200 μM L-tryptophan, pH7, 30 minutes pre-incubation at RT; mean values when measured multiple times; read-out: hTDO activity (IC50 in nM)
T2 construct: Recombinant human TDO comprising amino acids 19-407 with a N-terminal hexahistidine tag; hexahistidine (His6) (N); made in house; host or cells: E. coli
Outline: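 NFK formed over 30 min at RT from 200 μM L-tryptophan was measured by LCMS, normalized to d5-tryptophan, after compound (0.5 nM–10 μM, duplicates, 0.6% DMSO) was preincubated 30 min with 15 nM recombinant His-tagged TDO 19-407 in phosphate buffer pH 7. IC50 from four-parameter logistic fit; repeats averaged.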

T2 sequence (P48775 19-406 limits assumed): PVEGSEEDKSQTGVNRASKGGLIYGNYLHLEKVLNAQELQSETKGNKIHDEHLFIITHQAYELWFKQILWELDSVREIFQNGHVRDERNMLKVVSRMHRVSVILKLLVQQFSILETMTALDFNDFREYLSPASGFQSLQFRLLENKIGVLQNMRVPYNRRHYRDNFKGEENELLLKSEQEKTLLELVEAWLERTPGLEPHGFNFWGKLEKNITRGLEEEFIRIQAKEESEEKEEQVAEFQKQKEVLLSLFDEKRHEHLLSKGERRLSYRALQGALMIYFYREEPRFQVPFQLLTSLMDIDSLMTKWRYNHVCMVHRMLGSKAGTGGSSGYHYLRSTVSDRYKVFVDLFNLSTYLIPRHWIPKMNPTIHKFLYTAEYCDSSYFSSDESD
T1 sequence (P14902 whole entry): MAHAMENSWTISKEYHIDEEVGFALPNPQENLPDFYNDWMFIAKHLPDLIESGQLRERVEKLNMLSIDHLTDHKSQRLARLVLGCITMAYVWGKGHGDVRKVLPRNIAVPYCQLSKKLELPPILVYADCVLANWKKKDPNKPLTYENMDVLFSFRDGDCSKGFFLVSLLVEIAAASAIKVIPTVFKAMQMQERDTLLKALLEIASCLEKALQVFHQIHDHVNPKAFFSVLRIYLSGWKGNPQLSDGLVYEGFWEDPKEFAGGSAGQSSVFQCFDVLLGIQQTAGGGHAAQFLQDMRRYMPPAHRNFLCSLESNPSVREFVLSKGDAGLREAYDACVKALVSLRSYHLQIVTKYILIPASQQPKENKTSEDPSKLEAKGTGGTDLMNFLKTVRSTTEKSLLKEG

Compound | IC50 [1] | IC50 [2]
CNC(=O)c1ccc(-n2cc(C(O)c3c(C4CC4)sc4cncn34)nn2)cc1 (racemic) [Example 182, rac-4-{4-[(2-Cyclopropyl-imidazo[5,1-b]thiazol-3-yl)-hydroxy-methyl]-[1,2,3]triazol-1-yl}-N-methyl-benzamide] | 26 nM | > 10200 nM
CCNC(=O)Nc1ccc(-n2cc(C(O)c3c(C4CC4)sc4cncn34)nn2)cc1OC (racemic) [Example 183, rac-1-(4-{4-[(2-Cyclopropyl-imidazo[5,1-b]thiazol-3-yl)-hydroxy-methyl]-[1,2,3]triazol-1-yl}-2-methoxy-phenyl)-3-ethyl-urea] | 15.5 nM | > 10200 nM
O=C(NCCCO)c1ccc(-n2cc(C(O)c3c(C4CC4)sc4cncn34)nn2)cc1 (racemic) [Example 184, rac-4-{4-[(2-Cyclopropyl-imidazo[5,1-b]thiazol-3-yl)-hydroxy-methyl]-[1,2,3]triazol-1-yl}-N-(3-hydroxy-propyl)-benzamide] | 14.5 nM | > 10200 nM
NC(=O)c1ccc(-n2cc(C(O)c3c(C4CC4)sc4cncn34)nn2)cc1 (racemic) [Example 185, rac-4-{4-[(2-Cyclopropyl-imidazo[5,1-b]thiazol-3-yl)-hydroxy-methyl]-[1,2,3]triazol-1-yl}-benzamide] | 14.9 nM | > 10200 nM
O=C(NCCO)c1ccc(-n2cc(C(O)c3c(C4CC4)sc4cncn34)nn2)cc1 (racemic) [Example 186, rac-4-{4-[(2-Cyclopropyl-imidazo[5,1-b]thiazol-3-yl)-hydroxy-methyl]-[1,2,3]triazol-1-yl}-N-(2-hydroxy-ethyl)-benzamide] | 17.3 nM | > 10200 nM
CC(C)(C)C(=O)Nc1ccc(-n2cc(C(O)c3c(C4CC4)sc4cncn34)nn2)cc1 (racemic) [Example 187, rac-N-(4-{4-[(2-Cyclopropyl-imidazo[5,1-b]thiazol-3-yl)-hydroxy-methyl]-[1,2,3]triazol-1-yl}-phenyl)-2,2-dimethyl-propionamide] | 13.7 nM | > 10200 nM
CCCCNC(=O)Nc1ccc(-n2cc(C(O)c3c(C4CC4)sc4cncn34)nn2)cc1 (racemic) [Example 188, rac-1-Butyl-3-(4-{4-[(2-cyclopropyl-imidazo[5,1-b]thiazol-3-yl)-hydroxy-methyl]-[1,2,3]triazol-1-yl}-phenyl)-urea] | 37.8 nM | 8320 nM
O=C(Nc1ccc(-n2cc(C(O)c3c(C4CC4)sc4cncn34)nn2)cc1)c1ccccc1 (racemic) [Example 189, rac-N-(4-{4-[(2-Cyclopropyl-imidazo[5,1-b]thiazol-3-yl)-hydroxy-methyl]-[1,2,3]triazol-1-yl}-phenyl)-benzamide] | 30.6 nM | > 10200 nM
O=C(NCc1ccco1)c1ccc(-n2cc(C(O)c3c(C4CC4)sc4cncn34)nn2)cc1 (racemic) [Example 190, rac-4-{4-[(2-Cyclopropyl-imidazo[5,1-b]thiazol-3-yl)-hydroxy-methyl]-[1,2,3]triazol-1-yl}-N-furan-2-ylmethyl-benzamide] | 8.8 nM | > 10200 nM
CCN(C)C(=O)c1ccc(-n2cc(C(O)c3c(C4CC4)sc4cncn34)nn2)cc1 (racemic) [Example 191, rac-4-{4-[(2-Cyclopropyl-imidazo[5,1-b]thiazol-3-yl)-hydroxy-methyl]-[1,2,3]triazol-1-yl}-N-ethyl-N-methyl-benzamide] | 109 nM | > 10200 nM
CC(C)C(=O)Nc1ccc(-n2cc(C(O)c3c(C4CC4)sc4cncn34)nn2)cc1 (racemic) [Example 192, rac-N-(4-{4-[(2-Cyclopropyl-imidazo[5,1-b]thiazol-3-yl)-hydroxy-methyl]-[1,2,3]triazol-1-yl}-phenyl)-isobutyramide] | 13.5 nM | > 10200 nM
C=CCNC(=O)c1ccc(-n2cc(C(O)c3c(C4CC4)sc4cncn34)nn2)cc1 (racemic) [Example 193, rac-N-Allyl-4-{4-[(2-cyclopropyl-imidazo[5,1-b]thiazol-3-yl)-hydroxy-methyl]-[1,2,3]triazol-1-yl}-benzamide] | 9.02 nM | > 10200 nM
O=c1[nH]c2ccc(-n3cc(C(O)c4c(C5CC5)sc5cncn45)nn3)cc2[nH]1 (racemic) [Example 194, rac-5-{4-[(2-Cyclopropyl-imidazo[5,1-b]thiazol-3-yl)-hydroxy-methyl]-[1,2,3]triazol-1-yl}-1,3-dihydro-benzoimidazol-2-one] | 70.4 nM | > 10200 nM
CN(C)C(=O)c1ccc(-n2cc(C(O)c3c(C4CC4)sc4cncn34)nn2)cc1 (racemic) [Example 195, rac-4-{4-[(2-Cyclopropyl-imidazo[5,1-b]thiazol-3-yl)-hydroxy-methyl]-[1,2,3]triazol-1-yl}-N,N-dimethyl-benzamide] | 145 nM | > 10200 nM
CCc1sc2cncn2c1C(O)c1cn(-c2ccc(C(=O)NCCOC)cc2)nn1 (racemic) [Example 196, rac-4-{4-[(2-Ethyl-imidazo[5,1-b]thiazol-3-yl)-hydroxy-methyl]-[1,2,3]triazol-1-yl}-N-(2-methoxy-ethyl)-benzamide] | 17.1 nM | > 10200 nM
COc1cc(C#N)cc(-n2cc(C(O)c3c(C4CC4)sc4cncn34)nn2)c1 (racemic) [Example 197, rac-3-{4-[(2-Cyclopropyl-imidazo[5,1-b]thiazol-3-yl)-hydroxy-methyl]-[1,2,3]triazol-1-yl}-5-methoxy-benzonitrile] | 52.4 nM | > 10200 nM
COc1cc(-n2cc(C(O)c3c(C4CC4)sc4cncn34)nn2)cc(C#N)c1OC (racemic) [Example 198, rac-5-{4-[(2-Cyclopropyl-imidazo[5,1-b]thiazol-3-yl)-hydroxy-methyl]-[1,2,3]triazol-1-yl}-2,3-dimethoxy-benzonitrile] | 52.4 nM | > 10200 nM
N#Cc1cc(-n2cc(C(O)c3c(C4CC4)sc4cncn34)nn2)ccc1OC(F)(F)F (racemic) [Example 199, rac-5-{4-[(2-Cyclopropyl-imidazo[5,1-b]thiazol-3-yl)-hydroxy-methyl]-[1,2,3]triazol-1-yl}-2-trifluoromethoxy-benzonitrile] | 73.1 nM | > 10200 nM
OC(c1cn(-c2nccc(Br)c2Cl)nn1)c1c(C2CC2)sc2cncn12 (racemic) [Example 200, rac-[1-(4-Bromo-3-chloro-pyridin-2-yl)-1H-[1,2,3]triazol-4-yl]-(2-cyclopropyl-imidazo[5,1-b]thiazol-3-yl)-methanol] | 55.4 nM | > 10200 nM
OCCOCCOCCOc1ccc(-n2cc(C(O)c3c(C4CC4)sc4cncn34)nn2)cc1 (racemic) [Example 201, rac-2-{2-[2-(4-{4-[(2-Cyclopropyl-imidazo[5,1-b]thiazol-3-yl)-hydroxy-methyl]-[1,2,3]triazol-1-yl}-phenoxy)-ethoxy]-ethoxy}-ethanol] | 27.8 nM | > 10200 nM
OC(c1cn(-c2ccc(OCc3ccccn3)cc2)nn1)c1c(C2CC2)sc2cncn12 (racemic) [Example 203, rac-(2-Cyclopropyl-imidazo[5,1-b]thiazol-3-yl)-{1-[4-(pyridin-2-ylmethoxy)-phenyl]-1H-[1,2,3]triazol-4-yl}-methanol] | 1350 nM | > 10200 nM
CN(C)CCOc1ccc(-n2cc(C(O)c3c(C4CC4)sc4cncn34)nn2)cc1 (racemic) [Example 204, rac-(2-Cyclopropyl-imidazo[5,1-b]thiazol-3-yl)-{1-[4-(2-dimethylamino-ethoxy)-phenyl]-1H-[1,2,3]triazol-4-yl}-methanol] | 292 nM | > 10200 nM
CS(=O)(=O)CCOc1ccc(-n2cc(C(O)c3c(C4CC4)sc4cncn34)nn2)cc1 (racemic) [Example 205, rac-(2-Cyclopropyl-imidazo[5,1-b]thiazol-3-yl)-{1-[4-(2-methanesulfonyl-ethoxy)-phenyl]-1H-[1,2,3]triazol-4-yl}-methanol] | 626 nM | > 10200 nM
NS(=O)(=O)CCCOc1ccc(-n2cc(C(O)c3c(C4CC4)sc4cncn34)nn2)cc1 (racemic) [Example 206, rac-3-(4-{4-[(2-Cyclopropyl-imidazo[5,1-b]thiazol-3-yl)-hydroxy-methyl]-[1,2,3]triazol-1-yl}-phenoxy)-propane-1-sulfonic acid amide] | 7.11 nM | > 10200 nM
Cc1cc(O)ccc1-n1cc(C(O)c2c(C3CC3)sc3cncn23)nn1 (racemic) [Example 207, rac-4-{4-[(2-Cyclopropyl-imidazo[5,1-b]thiazol-3-yl)-hydroxy-methyl]-[1,2,3]triazol-1-yl}-3-methyl-phenol] | 26.9 nM | > 10200 nM
Oc1ccc(-n2cc(C(O)c3c(C4CC4)sc4cncn34)nn2)c(F)c1 (racemic) [Example 208, rac-4-{4-[(2-Cyclopropyl-imidazo[5,1-b]thiazol-3-yl)-hydroxy-methyl]-[1,2,3]triazol-1-yl}-3-fluoro-phenol] | 9.58 nM | 6400 nM
Oc1ccc(-n2cc(C(O)c3c(C4CC4)sc4cncn34)nn2)cc1C(F)(F)F (racemic) [Example 209, rac-4-{4-[(2-Cyclopropyl-imidazo[5,1-b]thiazol-3-yl)-hydroxy-methyl]-[1,2,3]triazol-1-yl}-2-trifluoromethyl-phenol] | 22.1 nM | > 10200 nM

Source: patent US20200405696A1, “INHIBITORS OF INDOLEAMINE 2,3-DIOXYGENASE AND/OR TRYPTOPHAN 2,3-DIOXYGENASE” (IDORSIA PHARMACEUTICALS LTD, priority 2018, published 2020)
